Results reported in patent US20250082656A1, “DOSAGE REGIMENS FOR TREATMENT OF DENGUE INFECTION” (Atea Pharmaceuticals, Inc., priority 2022, published 2025).
Like-named read-outs stand apart in the source and are kept apart here.

Key:
[1] = Plasma PK after single oral dose of AT-752, monkeys; format: in vivo, cynomolgus monkeys; conditions: Monkey, single oral AT-752 300 mg/kg, plasma
Experimental: (§1) Male cynomolgus monkeys were administered 300 mg/kg Compound 2 (AT-752). Blood samples were collected up to 24 hrs. post dose, plasma separated and analyzed for Compound 1 (AT-281), Compound 3 (AT-551), and Compound 6 (AT-273) by LC-MS/MS. Data are express as mean+/−SD (n=3-5/time point). The x-axis is time post the dose measured in hours and the y-axis is the plasma concentration of the metabolites measured in nanomoles/mL). The experimental procedure is provided in Example 14.
Male non-naïve cynomolgus monkeys (Hainan Jingang Laboratory Animal Co. Ltd., China), at least 2 kg body weight, were individually housed during the study in stainless steel mesh cages, provided ad libitum access to RO water, fed twice daily (except on the day of dosing when they were fed once) with ˜60 g Certified Monkey Diet each feed (Beijing Vital Keao Feed Co., Ltd., Beijing, China) and given daily treats of fresh fruit. They (n=5) were administered a dose of Compound 2 (AT-752) at 300 mg/kg in 40% PEG400, 10% solutol HS15, 50% 100 mM citrate buffer, pH 4.5 (v/v) by oral gavage, and blood samples (˜0.5 mL) were collected at 1, 2, 4, 8, 12 and 24 h post dose. Plasma was separated at each time point for pharmacokinetics, and stored at −70° C. […] Separately, three monkeys were given an oral dose of Compound 2 (AT-752) as powder in capsules at 60 mg/kg ([…] (AT-281) equivalent dose of 55 mg/kg), and blood samples collected at 12, 24 and 48 h post dose.
(§2) Pharmacokinetic measurements for FIGS. 11, 12, 13, 14, and 15 were analyzed using LC-MS/MS according to the protocol described herein. Plasma samples were prepared for MS analysis by adding internal standards and extracting with 20 volumes chilled ACN. After vortex (800 rpm for 10 min) and centrifugation (4,000 rpm, 15 min, 4° C.), the supernatants (25 μL) were diluted with an equal volume of H2O, mixed and spun again. After adding internal standards, the PBMC samples (10^6 cells) were lyzed with 300 μL MeOH/H2O (70:30, v/v) and 40 mM dibutylammonium acetate (DBAA), mixed by vortex and centrifuged (12,000 rpm, 15 min, 4° C.). Aliquots of the supernatants (35 μL) were dried under nitrogen and reconstituted in H2O, then mixed and spun again. […] A binary nonlinear gradient with mobile phases A (0.1% formic acid in water) and B (0.1% formic acid in ACN) were used to elute samples at 0.8 mL/min, with a run time of 5 min. […] A binary nonlinear gradient with mobile phases A (0.001% NHr H2O, 0.18 mM DBAA in H2O) and B (10 mM N,N-dimethyl-hexylamine, 3 mM NH4OAc in ACN/H2O (50.50, v/v)) were used to elute samples at 0.5 mL/min, with a run time of 3 min. Standards in 50% MeOH were used for calibration. […] Internal standards (ISS) as described previously (Good et al., Preclinical evaluation of AT-527, a novel guanosine nucleotide prodrug with potent, pan-genotypic activity against hepatitis C virus. PLos One 15:e02271045) were used to correct for variations in recovery.
(§3) Data analysis of the pharmacokinetic data generated according to Example 21 and presented in FIGS. 11, 12, 13, 14, and 15 was analyzed according to the procedure described herein. Plasma concentrations of Compound 1 (AT-281), Compound 3 (AT-551) and Compound 6 (AT-273) were subjected to non-compartmental pharmacokinetic analysis using Phoenix WinNonlin software (version 6.3 or above, Pharsight, Mountain View, CA). The linear/log trapezoidal rule was applied in obtaining the PK parameters.

[2] = Plasma PK after single oral dose of AT-752, rats; format: in vivo, SD rats; conditions: Rat, single oral AT-752 300 mg/kg, plasma
Experimental: as §1, with “SD rats” for “cynomolgus monkeys”
Male naïve SD rats (Beijing Vital River Laboratory Animals Co. Ltd., China) were administered a dose of AT-752 at 300 mg/kg in 40% PEG400, 10% solutol HS15, 50% 100 mM citrate buffer, pH 4.5 (v/v) by oral gavage. Blood samples (n=4) were collected at 1, 2, 4, 8, 12 and 24 h post-dose, plasma separated and stored at −70° C. […] For PBMCs, nine male naïve SD rats were administered a dose of Compound 2 (AT-752) (at a Compound 1 (AT-281) equivalent dose of 300 mg/kg) by oral gavage.
as §2, §3

[3] = Pharmacokinetic study in SAD cohorts; format: in vivo, human; conditions: for dose proportionality of plasma exposure: dose range 250 to 1500 mg; for Urine Elimination: following single oral administration of Compound 2 at 250 to 1500 mg; for AUCInf / Cmax / T1/2 / Tmax: human plasma; for CLR: human
Experimental: as §2, §3

[4] = Plasma PK after single oral dose of AT-752, mice; conditions: Mouse, single oral AT-752 420 mg/kg
[5] = steady-state, human plasma; for AUCtau / Cmax: mean±SD; for Tmax: median (minimum-maximum)
[6] = single oral Compound 2 250 mg, fasting
[7] = single oral Compound 2 500 mg, fasting
[8] = single oral Compound 2 500 mg, fed
[9] = single oral Compound 2 500 mg, fed (high-fat/high-calorie meal)
[10] = single oral Compound 2 1000 mg, South/Southeast/East Asian origin
[11] = single oral Compound 2 1000 mg, fasting
[12] = single oral Compound 2 1000 mg, patients of South/Southeast/East Asian origin
[13] = single oral Compound 2 1500 mg, fasting

SMILES: CNc1nc(N)nc2c1ncn2C1OC(COP(=O)(O)NC(C)C(=O)O)C(O)C1(C)F (stereo not drawn) [Compound 3]
- AUC0-24 h [1]: 9.7 ± 2.2 µM·h
- Cmax [1]: 2 ± 0.8 µM
- Tmax [1]: 2.0 ± 0.0 h
- AUC0-24 h [2]: 56.5 µM·h
- Cmax [2]: 16.5 ± 10.8 µM
- dose proportionality of plasma exposure [3]: greater than dose-proportional manner
- Urine Elimination [3]: < 1%
- AUCInf [3, 6]: 302 ± 71 ng·h/mL
- Cmax [3, 6]: 89 ± 36 ng/mL
- T1/2 [3, 6]: 2.1 ± 0.3 h
- Tmax [3, 6]: 1.0 (0.8-2.0) h
- AUCInf [3, 7]: 898 ± 437 ng·h/mL
- Cmax [3, 7]: 231 ± 155 ng/mL
- T1/2 [3, 7]: 2.4 ± 0.5 h
- Tmax [3, 7]: 1.0 (0.8-8.0) h
- AUCInf [3, 8]: 737 ± 289 ng·h/mL
- T1/2 [3, 8]: 2.3 ± 0.4 h
- Tmax [3, 8]: 3.1 (3.0-4.0) h
- Cmax [3, 9]: 154 ± 84 ng/mL
- AUCInf [3, 10]: 3320 ± 1630 ng·h/mL
- T1/2 [3, 10]: 2.0 ± 0.3 h
- Tmax [3, 10]: 0.9 (0.5-2.0) h
- AUCInf [3, 11]: 2330 ± 1060 ng·h/mL
- Cmax [3, 11]: 695 ± 468 ng/mL
- T1/2 [3, 11]: 2.2 ± 0.4 h
- Tmax [3, 11]: 0.8 (0.5-2.0) h
- Cmax [3, 12]: 895 ± 418 ng/mL
- AUCInf [3, 13]: 4100 ± 494 ng·h/mL
- Cmax [3, 13]: 1080 ± 217 ng/mL
- T1/2 [3, 13]: 3.2 ± 1.2 h
- Tmax [3, 13]: 1.5 (0.8-2.0) h
- CLR [3, 6]: 2.0 ± 0.3 L/h
- CLR [3, 7]: 2.1 ± 0.6 L/h
- CLR [3, 8]: 2.1 ± 0.4 L/h
- CLR [3, 10]: 2.1 ± 0.6 L/h
- CLR [3, 11]: 2.1 ± 0.6 L/h
- CLR [3, 13]: 1.9 ± 0.4 L/h
- AUC0-24 h [4]: 58.7 ± 13.3 µM·h
- Cmax [4]: 45.1 ± 12 µM
- Tmax [4]: 0.5 ± 0.0 h
- AUCtau ([5]; Compound 2 750 mg BID): 1330 ± 503 ng·h/mL
- Cmax ([5]; Compound 2 750 mg BID): 365 ± 159 ng/mL
- Tmax ([5]; Compound 2 750 mg BID): 1.0 (0.8-2.0) h
- AUCtau ([5]; Compound 2 750 mg TID): 944 ± 173 ng·h/mL
- Cmax ([5]; Compound 2 750 mg TID): 245 ± 30 ng/mL
- Tmax ([5]; Compound 2 750 mg TID): 1.5 (0.8-2.0) h
- AUCtau ([5]; Compound 2 1000 mg QD): 1650 ± 498 ng·h/mL
- Cmax ([5]; Compound 2 1000 mg QD): 392 ± 143 ng/mL
- Tmax ([5]; Compound 2 1000 mg QD): 1.0 (0.8-2.0) h

SMILES: CNc1nc(N)nc2c1ncn2[C@@H]1O[C@H](CO)[C@@H](O)[C@@]1(C)F [Compound 7]
- dose proportionality of plasma exposure [3]: dose-proportional manner
- Urine Elimination [3]: 10.7-17.9%
- AUCInf [3, 6]: 2890 ± 680 ng·h/mL
- Cmax [3, 6]: 446 ± 121 ng/mL
- T1/2 [3, 6]: 16.9 ± 8.6 h
- Tmax [3, 6]: 2.1 (2.0-3.0) h
- AUCInf [3, 7]: 5480 ± 1630 ng·h/mL
- Cmax [3, 7]: 765 ± 307 ng/mL
- T1/2 [3, 7]: 15.1 ± 6.2 h
- Tmax [3, 7]: 1.0 (0.8-4.0) h
- AUCInf [3, 8]: 4310 ± 1400 ng·h/mL
- T1/2 [3, 8]: 11.2 ± 4.9 h
- Tmax [3, 8]: 4.0 (3.0-6.1) h
- Cmax [3, 9]: 488 ± 324 ng/mL
- AUCInf [3, 10]: 14000 ± 4210 ng·h/mL
- T1/2 [3, 10]: 14.7 ± 10.1 h
- Tmax [3, 10]: 1.5 (0.8-2.0) h
- AUCInf [3, 11]: 10300 ± 3070 ng·h/mL
- Cmax [3, 11]: 1640 ± 474 ng/mL
- T1/2 [3, 11]: 12.4 ± 10.7 h
- Tmax [3, 11]: 0.9 (0.8-3.0) h
- Cmax [3, 12]: 2010 ± 489 ng/mL
- AUCInf [3, 13]: 16700 ± 3780 ng·h/mL
- Cmax [3, 13]: 2030 ± 600 ng/mL
- T1/2 [3, 13]: 12.5 ± 3.8 h
- Tmax [3, 13]: 2.0 (1.0-2.0) h
- CLR [3, 6]: 13.7 ± 1.6 L/h
- CLR [3, 7]: 13.6 ± 5.4 L/h
- CLR [3, 8]: 12.5 ± 2.8 L/h
- CLR [3, 10]: 13.4 ± 2.5 L/h
- CLR [3, 11]: 14.2 ± 3.8 L/h
- CLR [3, 13]: 15.0 ± 2.4 L/h
- AUCtau ([5]; Compound 2 750 mg BID): 7960 ± 2970 ng·h/mL
- Cmax ([5]; Compound 2 750 mg BID): 1470 ± 404 ng/mL
- Tmax ([5]; Compound 2 750 mg BID): 1.5 (0.8-2.2) h
- AUCtau ([5]; Compound 2 750 mg TID): 22300 ± 14100 ng·h/mL
- Cmax ([5]; Compound 2 750 mg TID): 1600 ± 640 ng/mL
- Tmax ([5]; Compound 2 750 mg TID): 1.5 (1.0-2.0) h
- AUCtau ([5]; Compound 2 1000 mg QD): 8290 ± 2290 ng·h/mL
- Cmax ([5]; Compound 2 1000 mg QD): 1200 ± 284 ng/mL
- Tmax ([5]; Compound 2 1000 mg QD): 0.9 (0.8-2.0) h
